Values quoted from earlier work as cited in US20100215723A1, “Wound Dressing with Antimicrobial Gauze and Bonding Agent” (priority 2009, published 2010).

Legend:
pseudomonas aeruginosa = conditions: stated as known
aspergillus niger = conditions: stated as known

Polyhexamethylene biguanide [PHMB]
indicative MIC value (pseudomonas aeruginosa): 100 ppm
indicative MIC value (aspergillus niger): 750 ppm
